Experimental data: US20120157471A1, “BENZIMIDAZOLE DERIVATIVES” (PFIZER INC., priority 2009, published 2012)

Legend:
[1] = target: T1, human Smo (amino acids 181-787) (Homo sapiens, UniProt Q99835); experiment: Smo radioligand competition binding assay (displacement of 3H-PF-03451358 from HEK293 membranes); conditions: for inhibition at 0.05 µM: 0.05 μM test compound, displacement of 3H-PF-03451358, read-out: SMO % inh. @ 0.05 μM; for IC50: radioligand competition binding
T1 construct: expressed in transfected cells; membrane preparation
Outline: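 Membranes (40 μg protein/well) from HEK293 expressing murine Igk-leader-fused Smo 181-787 incubated 2 h at room temperature with 3 nM 3H-PF-03451358 in Tris pH 7.5/NaCl/MgCl2/EDTA/BSA buffer; filter-bound counts by scintillation. Nonspecific binding with 30 μM cold PF-03451358; IC50 from four-parameter fit of % inhibition.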

[2] = tested on: Gli-Luc/MEF cells (Smo); experiment: Gli-Luc/MEF assay (Shh-stimulated luciferase reporter under the Gli response element); format: cell-based, mouse; conditions: Mus musculus, MEF, 48 h
Outline: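 Mouse Gli-Luc/MEF cells dosed with compound (3-fold series, […]) plus 2 μg/mL recombinant mouse Shh, then incubated 48 h at 37° C, 5% CO2. Bright-Glo luminescence read; IC50 calculated from inhibition of Shh-stimulated luciferase.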

T1 sequence (Q99835 181-787): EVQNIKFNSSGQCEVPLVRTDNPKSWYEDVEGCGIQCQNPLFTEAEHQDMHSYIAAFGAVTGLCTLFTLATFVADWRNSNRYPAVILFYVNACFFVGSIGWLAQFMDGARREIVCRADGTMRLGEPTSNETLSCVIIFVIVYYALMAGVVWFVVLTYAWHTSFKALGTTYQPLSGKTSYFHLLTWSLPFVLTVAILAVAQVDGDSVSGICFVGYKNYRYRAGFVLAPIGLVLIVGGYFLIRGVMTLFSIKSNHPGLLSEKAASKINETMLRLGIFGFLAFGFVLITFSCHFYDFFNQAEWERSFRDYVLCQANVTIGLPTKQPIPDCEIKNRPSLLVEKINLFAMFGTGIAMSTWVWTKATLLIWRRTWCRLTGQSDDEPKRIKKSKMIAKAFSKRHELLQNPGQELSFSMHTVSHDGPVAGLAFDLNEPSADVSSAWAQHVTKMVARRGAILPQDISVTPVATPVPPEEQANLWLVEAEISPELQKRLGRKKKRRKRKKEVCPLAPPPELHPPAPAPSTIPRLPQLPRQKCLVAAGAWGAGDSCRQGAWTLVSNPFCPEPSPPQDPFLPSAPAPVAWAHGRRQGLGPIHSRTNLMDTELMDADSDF

Compound | inhibition at 0.05 µM [1] [%] | IC50 [1] [µM] | IC50 [2] [µM]
Cn1c(-c2cc(N3CCC(C(=O)NCC(C)(C)O)CC3)ncc2Cl)nc2ccccc21 [Example A-212, 1-[5-chloro-4-(1-methyl-1H-benzimidazol-2-yl)pyridin-2-yl]-N-(2-hydroxy-2-methylpropyl)piperidine-4-carboxamide] | 99 | 0.012 | 0.0291
Cn1c(-c2cc(N3CCN(CCO)CC3)ncc2Cl)nc2ccccc21 [Example A-213, 2-{4-[5-chloro-4-(1-methyl-1H-benzimidazol-2-yl)pyridin-2-yl]piperazin-1-yl}ethanol] | 83 | 0.078 | 0.0568
CCn1c(-c2cc(N3CCN(C(C)=O)CC3)ncc2Cl)nc2ccccc21 [Example A-214, 2-[2-(4-acetylpiperazin-1-yl)-5-chloropyridin-4-yl]-1-ethyl-1H-benzimidazole] | 63 | 0.432 | 0.124
CC(=O)N1CCN(c2cc(-c3nc4ccccc4[nH]3)c(Cl)cn2)CC1 [Example A-215, 2-[2-(4-acetylpiperazin-1-yl)-5-chloropyridin-4-yl]-1H-benzimidazole] | 79 | 0.189 | 0.063
Cn1c(-c2cc(N3CCC(CS(C)(=O)=O)CC3)ncc2Cl)nc2cccnc21 [Example A-216, 2-(5-chloro-2-{4-[(methylsulfonyl)methyl]piperidin-1-yl}pyridin-4-yl)-3-methyl-3H-imidazo[4,5-b]pyridine] | 98 | 0.01 | 0.007
CC(=O)N1CCN(c2ccc(Cl)c(-c3nc4ccccc4n3C)n2)CC1 [Example B-2, 2-[6-(4-acetylpiperazin-1-yl)-3-chloropyridin-2-yl]-1-methyl-1H-benzimidazole] | 95 | 0.018 | 0.032
CNC(=O)N1CCN(c2ccc(Cl)c(-c3nc4ccccc4n3C)n2)CC1 [Example B-3, 4-[5-chloro-6-(1-methyl-1H-benzimidazol-2-yl)pyridin-2-yl]-N-methylpiperazine-1-carboxamide] | 88 | 0.049 | 0.02
Cn1c(-c2nc(N3CCN(C=O)CC3)ccc2Cl)nc2ccccc21 [Example B-5, 4-[5-chloro-6-(1-methyl-1H-benzimidazol-2-yl)pyridin-2-yl]piperazine-1-carbaldehyde] | 92 | 0.027 | 0.027
Cn1c(-c2nc(N3CCC(O)CC3)ccc2Cl)nc2ccccc21 [Example B-6, 1-[5-chloro-6-(1-methyl-1H-benzimidazol-2-yl)pyridin-2-yl]piperidin-4-ol] | 95 | 0.01 | 0.012
Cn1c(-c2cccc(N3CCN(S(C)(=O)=O)CC3)n2)nc2ccccc21 [Example B-7, 1-methyl-2-{6-[4-(methylsulfonyl)piperazin-1-yl]pyridin-2-yl}-1H-benzimidazole] | 78 | 0.097 | 0.189
CC(=O)N1CCN(c2cccc(-c3nc4ccccc4n3C)n2)CC1 [Example B-8, 2-[6-(4-acetylpiperazin-1-yl)pyridin-2-yl]-1-methyl-1H-benzimidazole] | 90 | 0.032 | 0.046
COC(=O)N1CCN(c2cccc(-c3nc4ccccc4n3C)n2)CC1 [Example B-9, methyl 4-[6-(1-methyl-1H-benzimidazol-2-yl)pyridin-2-yl]piperazine-1-carboxylate] | 82 | 0.122 | 0.143
CNC(=O)N1CCN(c2cccc(-c3nc4ccccc4n3C)n2)CC1 [Example B-10, N-methyl-4-[6-(1-methyl-1H-benzimidazol-2-yl)pyridin-2-yl]piperazine-1-carboxamide] | 72 | 0.082 | 0.089
CC(=O)NC1CCN(c2ccc(Cl)c(-c3nc4ccccc4n3C)n2)CC1 [Example B-11, N-{1-[5-chloro-6-(1-methyl-1H-benzimidazol-2-yl)pyridin-2-yl]piperidin-4-yl}acetamide] | 98 | 0.016 | 0.007
Cn1c(-c2nc(N3CCC(NS(C)(=O)=O)CC3)ccc2Cl)nc2ccccc21 [Example B-12, N-{1-[5-chloro-6-(1-methyl-1H-benzimidazol-2-yl)pyridin-2-yl]piperidin-4-yl}methanesulfonamide] | 100 | 0.01 | 0.001
Cc1ccc(N2CCC(NS(C)(=O)=O)CC2)nc1-c1nc2ccccc2n1C [Example B-13, N-{1-[5-methyl-6-(1-methyl-1H-benzimidazol-2-yl)pyridin-2-yl]piperidin-4-yl}methanesulfonamide] | 98 | 0.011 | 0.0082

Compound | inhibition at 0.05 µM [1] [%] | IC50 [1] [µM] | IC50 [2] [µM]
CC(=O)N1CCN(c2ncc(Cl)c(-c3nc4ccccc4n3C)n2)CC1 [Example C-1, 2-[2-(4-Acetylpiperazin-1-yl)-5-chloropyrimidin-4-yl]-1-methyl-1H-benzimidazole] | 96 | 0.012 | 0.007
Cn1c(-c2nc(N3CCN(S(C)(=O)=O)CC3)ncc2Cl)nc2ccccc21 [Example C-3, 2-{5-Chloro-2-[4-(methylsulfonyl)piperazin-1-yl]pyrimidin-4-yl}-1-methyl-1H-benzimidazole] | 96 | 0.009 | 0.019
COC(=O)N1CCN(c2ncc(Cl)c(-c3nc4ccccc4n3C)n2)CC1 [Example C-5, Methyl 4-[5-chloro-4-(1-methyl-1H-benzimidazol-2-yl)pyrimidin-2-yl]piperazine-1-carboxylate] | 96 | 0.014 | 0.009
CNC(=O)N1CCN(c2ncc(Cl)c(-c3nc4ccccc4n3C)n2)CC1 [Example C-7, 4-[5-Chloro-4-(1-methyl-1H-benzimidazol-2-yl)pyrimidin-2-yl]-N-methylpiperazine-1-carboxamide] | 95 | 0.014 | 0.018
CNC(=O)N1CCN(c2nccc(-c3nc4ccccc4n3C)n2)CC1 [Example C-8, N-Methyl-4-[4-(1-methyl-1H-benzimidazol-2-yl)pyrimidin-2-yl]piperazine-1-carboxamide] | 54 | 0.538 | 0.408
Cn1c(-c2nc(N3CCC(NS(C)(=O)=O)CC3)ncc2Cl)nc2ccccc21 [Example C-9, N-{1-[5-chloro-4-(1-methyl-1H-benzimidazol-2-yl)pyrimidin-2-yl]piperidin-4-yl}methanesulfonamide] | 100 | 0.006 | 0.002
Cn1c(-c2ccnc(N3CCC(NS(C)(=O)=O)CC3)n2)nc2ccccc21 [Example C-10, N-{1-[4-(1-methyl-1H-benzimidazol-2-yl)pyrimidin-2-yl]piperidin-4-yl}methanesulfonamide] | 97 | 0.044 | 0.057
Cn1c(-c2nc(N3CCC(O)CC3)ncc2Cl)nc2ccccc21 [Example C-11, 1-[5-chloro-4-(1-methyl-1H-benzimidazol-2-yl)pyrimidin-2-yl]piperidin-4-ol] | 98 | 0.016 | 0.024
Cn1c(-c2nc(N3CCOCC3)ncc2Cl)nc2ccccc21 [Example C-12, 2-(5-chloro-2-morpholin-4-ylpyrimidin-4-yl)-1-methyl-1H-benzimidazole] | 93 | 0.047 | 0.06
Cn1c(-c2nc(N3CCC(S(C)(=O)=O)CC3)ncc2Cl)nc2ccccc21 [Example C-14, 2-{5-chloro-2-[4-(methylsulfonyl)piperidin-1-yl]pyrimidin-4-yl}-1-methyl-1H-benzimidazole] | 90 | 0.043 | 0.037
CN(C)CC(=O)N1CCN(c2ncc(Cl)c(-c3nc4ccccc4n3C)n2)CC1 [Example C-15, 2-{4-[5-chloro-4-(1-methyl-1H-benzimidazol-2-yl)pyrimidin-2-yl]piperazin-1-yl}-N,N-dimethyl-2-oxoethanamine] | 95 | 0.064 | 0.0089
COCC(=O)N1CCN(c2ncc(Cl)c(-c3nc4ccccc4n3C)n2)CC1 [Example C-16, 2-{5-chloro-2-[4-(methoxyacetyl)piperazin-1-yl]pyrimidin-4-yl}-1-methyl-1H-benzimidazole] | 99 | 0.014 | 0.0127
Cn1c(-c2nc(N3CCN(C(=O)CCO)CC3)ncc2Cl)nc2ccccc21 [Example C-17, 3-{4-[5-chloro-4-(1-methyl-1H-benzimidazol-2-yl)pyrimidin-2-yl]piperazin-1-yl}-3-oxopropan-1-ol] | 98 | – | 0.0172
Cn1c(-c2nc(N3CCN(C(=O)CO)CC3)ncc2Cl)nc2ccccc21 [Example C-18, 2-{4-[5-chloro-4-(1-methyl-1H-benzimidazol-2-yl)pyrimidin-2-yl]piperazin-1-yl}-2-oxoethanol] | 98 | 0.015 | 0.036
CC(=O)N1CCN(c2cc(-c3nc4ccccc4n3C)c(F)cn2)CC1 [Example D-1, 2-[2-(4-acetylpiperazin-1-yl)-5-fluoropyridin-4-yl]-1-methyl-1H-benzimidazole] | 97 | 0.022 | 0.027
